The values below come from US20150065526A1, “OVERCOMING ACQUIRED RESISTANCE TO CHEMOTHERAPY TREATMENTS THROUGH SUPPRESSION OF STAT3” (EMORY UNIVERSITY, priority 2013, published 2015).

The subject of assay [1] is Tu212 head and neck cancer xenografts. Nature of the assay: Tu212 head and neck cancer xenografts in mice. The conditions noted are these: for Xenograft tumor growth, Tu212: erlotinib 40 mg/kg/d, niclosamide 20 mg/kg/d, two weeks. The assay is classed as in vivo. How it is done: Each group included 8 mice. Tumor volume was measured once every 2 days. After 14 days, the mice were sacrificed and the tumors were removed and analyzed. Representative tumor pictures were taken. B, Active caspase 3 and Ki 67 were analyzed in tumor tissues at the end of experiments by IHC staining and quantified. C, Expression levels of pEGFR, pSTAT3, Bcl2 and Bcl-XL in tumor tissues from various treatment groups were analyzed by Western blot.
First, head and neck cancer xenografts were generated using Tu212 cells.

Assay [2] relates to PTPMeg2, pSTAT3, Bcl2, Bcl-XL, JAK2, c-Src in HCC827 cells. The assay is described as follows: Western blot of HCC827 cells treated with erlotinib. The class given is cell-based, human.
Assay [3] has as its system HCC827/ER lung cancer xenografts. The conditions noted are these: niclosamide 20 mg/kg/d. The protocol:
(§1) Each group includes 8 mice. Tumor volume was measured once every 2 days. After 32 days, the mice were sacrificed and the tumors were removed and analyzed. Representative tumor pictures were taken. B, active caspase-3 was analyzed in tumor tissues at the end of experiments by IHC staining and quantified as described in Materials and Methods. C, expression levels of pEGFR, pSTAT3, Bcl2, and Bcl-XL from tumor tissues in various treatment groups were analyzed by Western blot analysis.
(§2) The control group was treated with 0.5% DMSO vehicle.

The next assay addresses STAT3 (Homo sapiens, UniProt P40763). The conditions noted are these: cited from earlier work.
The subject of assay [4] is HCC827 lung cancer xenografts. Particulars: niclosamide 20 mg/kg/d. How it is done:
as §1, §2

Assay [5] relates to STAT3 phosphorylation, Bcl2/Bcl-XL in Tu212 and Tu686 cells. The assay is described as follows: Western blot of Tu212 and Tu686 head and neck cancer cells. The class given is cell-based. Particulars: erlotinib plus increasing concentrations of niclosamide, 48 h.

Chain of STAT3 (P40763 whole entry): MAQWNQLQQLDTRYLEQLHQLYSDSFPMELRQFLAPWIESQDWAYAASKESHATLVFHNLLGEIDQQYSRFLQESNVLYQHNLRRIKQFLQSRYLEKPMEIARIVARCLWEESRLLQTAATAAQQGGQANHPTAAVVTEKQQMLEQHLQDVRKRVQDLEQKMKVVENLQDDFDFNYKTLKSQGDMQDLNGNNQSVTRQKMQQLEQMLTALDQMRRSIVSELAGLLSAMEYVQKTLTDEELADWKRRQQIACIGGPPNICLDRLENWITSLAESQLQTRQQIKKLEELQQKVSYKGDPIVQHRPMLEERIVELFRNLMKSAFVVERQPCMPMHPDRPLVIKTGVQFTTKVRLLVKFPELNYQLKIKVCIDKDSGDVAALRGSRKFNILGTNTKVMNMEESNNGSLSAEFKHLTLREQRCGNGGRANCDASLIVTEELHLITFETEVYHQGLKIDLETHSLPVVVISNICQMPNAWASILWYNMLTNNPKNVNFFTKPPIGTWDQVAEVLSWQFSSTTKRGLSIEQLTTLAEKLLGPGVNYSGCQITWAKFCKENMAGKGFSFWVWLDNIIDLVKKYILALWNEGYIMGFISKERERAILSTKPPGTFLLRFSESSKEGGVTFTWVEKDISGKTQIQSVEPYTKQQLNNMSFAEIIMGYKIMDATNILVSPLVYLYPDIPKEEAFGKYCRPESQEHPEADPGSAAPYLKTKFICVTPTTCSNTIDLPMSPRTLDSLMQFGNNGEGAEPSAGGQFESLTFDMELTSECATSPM

Regarding `C#Cc1cccc(Nc2ncnc3cc(OCCOC)c(OCCOC)cc23)c1` [erlotinib, N-(3-ethynylphenyl)-6,7-bis(2-methoxyethoxy)quinazolin-4-amine], in assay [1], the “Xenograft tumor growth, Tu212” value was “modest efficacy”. In assay [2], the “JAK2 and c-Src phosphorylation” value was “inhibited JAK2 and c-Src phosphorylation”; the PTPMeg2 expression result is “downregulates PTPMeg2”; the STAT3/Bcl2/Bcl-XL pathway status result is “activation of the STAT3/Bcl2/Bcl-XL pathway”. Also, the “Tumor volume, HCC827/ER xenografts” value in assay [3] (erlotinib 40 mg/kg/d, 32 days) is recorded as “tumor volumes comparable with those in the vehicle-treated control group”.
In the case of `O=C(Nc1ccc([N+](=O)[O-])cc1Cl)c1cc(Cl)ccc1O` [niclosamide], the “Xenograft tumor growth, Tu212” value in assay [1] was “modest efficacy”. In addition, the “Erlotinib-stimulated STAT3 phosphorylation, Bcl2 and Bcl-XL in tumor tissue lysates, Tu212” value in assay [1] (three mice in each treatment group) was “blocks erlotinib-stimulated STAT3 phosphorylation leading to decreased Bcl2 and Bcl-XL levels”. Besides, on STAT3, the “Activation of upstream proteins JAK2 and Src” value is recorded as “no obvious inhibitory effect”; the “STAT3 Tyr705 phosphorylation and transcriptional activity” value is recorded as “can inhibit Tyr705 site phosphorylation as well as transcriptional activity of STAT3”. For the same compound, the “STAT3 phosphorylation, Bcl2 and Bcl-XL in tumor lysates (Western blot), HCC827/ER” value in assay [3] was “blocks STAT3 phosphorylation in association with reduced Bcl2 and Bcl-XL”. Further, the “STAT3 phosphorylation, Bcl2 and Bcl-XL in tumor lysates (Western blot), HCC827” value in assay [4] was “blocks STAT3 phosphorylation in association with reduced Bcl2 and Bcl-XL”. Also, in assay [5], the “Erlotinib-induced STAT3 phosphorylation and Bcl2/Bcl-XL (Western blot)” value is “inhibited erlotinib-induced STAT3 phosphorylation and downregulated Bcl2/Bcl-XL in a dose-dependent manner”.
